Source: article PMC5218480 (PLoS ONE, 2017)

Test system: MV-4-11 cells
Assay: Gene expression microarray analysis (Affymetrix PrimeView) and GSEA
Type: cell-based, human
Design: RFU PODN (11730768_x_at) / Fold change /veh PODN (11730768_x_at) / RFU LINC00158 (11744669_a_at) / Fold change /veh LINC00158 (11744669_a_at) / RFU DUSP10 (11751237_a_at) / Fold change /veh DUSP10 (11751237_a_at) / RFU ID3 (11757404_x_at) / Fold change /veh ID3 (11757404_x_at) / RFU PLEKHG5 (11737974_s_at) / Fold change /veh PLEKHG5 (11737974_s_at) / RFU LRRC4B (11730491_at) / Fold change /veh LRRC4B (11730491_at) / RFU GIMAP4 (11747438_a_at) / Fold change /veh GIMAP4 (11747438_a_at) / RFU KRT8 (11758183_x_at) / Fold change /veh KRT8 (11758183_x_at) / RFU CNN1 (11734310_a_at) / Fold change /veh CNN1 (11734310_a_at) / RFU VPS37D (11726825_at) / Fold change /veh VPS37D (11726825_at) / RFU C10orf10 (11716522_x_at) / Fold change /veh C10orf10 (11716522_x_at) / RFU KIR2DL2 /// KIR2DL4 /// KIR2DL5A /// KIR2DL5B /// KIR2DS1 /// KIR2DS2 /// KIR2DS3 /// KIR2DS4 /// KIR3DL3 /// KIR3DL3 /// KIR3DS1 (11738374_at) / Fold change /veh KIR2DL2 /// KIR2DL4 /// KIR2DL5A /// KIR2DL5B /// KIR2DS1 /// KIR2DS2 /// KIR2DS3 /// KIR2DS4 /// KIR3DL3 /// KIR3DL3 /// KIR3DS1 (11738374_at) / RFU C1QL1 (11718748_at) / Fold change /veh C1QL1 (11718748_at) / RFU TMPRSS4 (11747572_a_at) / Fold change /veh TMPRSS4 (11747572_a_at) / RFU HAMP (11756126_x_at) / Fold change /veh HAMP (11756126_x_at) / RFU RNFT2 (11725882_a_at) / Fold change /veh RNFT2 (11725882_a_at) / RFU NR4A2 (11747474_a_at) / Fold change /veh NR4A2 (11747474_a_at) / RFU ABCC12 (11746883_a_at) / Fold change /veh ABCC12 (11746883_a_at) / RFU TMEM136 (11760407_x_at) / Fold change /veh TMEM136 (11760407_x_at) / RFU CLDN22 /// WWC2 (11732394_at) / Fold change /veh CLDN22 /// WWC2 (11732394_at) / RFU HLA-DPB1 (11760878_x_at) / Fold change /veh HLA-DPB1 (11760878_x_at) / RFU SPINT1 (11716480_a_at) / Fold change /veh SPINT1 (11716480_a_at) / RFU GAP43 (11754022_s_at) / Fold change /veh GAP43 (11754022_s_at) / RFU A4GNT (11735810_at) / Fold change /veh A4GNT (11735810_at) / RFU PRB3 (11715151_x_at) / Fold change /veh PRB3 (11715151_x_at) / RFU TUBB4B (11761932_at) / Fold change /veh TUBB4B (11761932_at) / RFU CAPN14 (11732068_a_at) / Fold change /veh CAPN14 (11732068_a_at) / RFU TMCC2 (11721928_a_at) / Fold change /veh TMCC2 (11721928_a_at) / RFU IRGQ (11745062_a_at) / Fold change /veh IRGQ (11745062_a_at) / RFU FAM174B (11720279_a_at) / Fold change /veh FAM174B (11720279_a_at) / RFU TMPRSS4 (11748680_a_at) / Fold change /veh TMPRSS4 (11748680_a_at) / RFU FAM212B (11763350_a_at) / Fold change /veh FAM212B (11763350_a_at) / RFU PLEKHG5 (11743358_a_at) / Fold change /veh PLEKHG5 (11743358_a_at) / RFU ZSCAN30 (11745921_a_at) / Fold change /veh ZSCAN30 (11745921_a_at) / RFU CMKLR1 (11741424_a_at) / Fold change /veh CMKLR1 (11741424_a_at) / RFU LOC101060620 /// MAPK8IP1 (11723275_at) / Fold change /veh LOC101060620 /// MAPK8IP1 (11723275_at) / RFU SPTSSB (11747773_x_at) / Fold change /veh SPTSSB (11747773_x_at) / RFU PRSS12 (11739890_at) / Fold change /veh PRSS12 (11739890_at) / RFU BIN1 (11741810_x_at) / Fold change /veh BIN1 (11741810_x_at) / RFU WNT11 (11732464_a_at) / Fold change /veh WNT11 (11732464_a_at) / RFU C10orf10 (11716521_a_at) / Fold change /veh C10orf10 (11716521_a_at) / RFU C5orf56 (11738089_at) / Fold change /veh C5orf56 (11738089_at) / RFU CYB561 (11721691_x_at) / Fold change /veh CYB561 (11721691_x_at) / RFU ANKRD19P (11752326_a_at) / Fold change /veh ANKRD19P (11752326_a_at) / RFU OR2T12 /// OR2T33 /// OR2T8 (11738714_s_at) / Fold change /veh OR2T12 /// OR2T33 /// OR2T8 (11738714_s_at) / RFU VCAN (11748164_a_at) / Fold change /veh VCAN (11748164_a_at) / RFU JSRP1 (11732532_at) / Fold change /veh JSRP1 (11732532_at) / RFU KRTAP10-11 (11738290_x_at) / Fold change /veh KRTAP10-11 (11738290_x_at) / RFU MYO3A (11730013_a_at) / Fold change /veh MYO3A (11730013_a_at) / RFU EBF3 (11725865_a_at) / Fold change /veh EBF3 (11725865_a_at) / RFU CAMK2N1 (11719241_x_at) / Fold change /veh CAMK2N1 (11719241_x_at) / RFU C5orf56 (11738088_a_at) / Fold change /veh C5orf56 (11738088_a_at) / RFU OLFML3 (11715873_a_at) / Fold change /veh OLFML3 (11715873_a_at) / RFU LOC100653217 /// NTM (11731650_a_at) / Fold change /veh LOC100653217 /// NTM (11731650_a_at) / RFU MAPK11 (11762145_a_at) / Fold change /veh MAPK11 (11762145_a_at) / RFU FIZ1 (11724087_x_at) / Fold change /veh FIZ1 (11724087_x_at) / RFU OASL (11726364_x_at) / Fold change /veh OASL (11726364_x_at) / RFU SOX15 (11748057_x_at) / Fold change /veh SOX15 (11748057_x_at) / RFU CD79A (11719716_a_at) / Fold change /veh CD79A (11719716_a_at) / RFU HIST1H1D (11736915_at) / Fold change /veh HIST1H1D (11736915_at) / RFU CASKIN2 (11723855_a_at) / Fold change /veh CASKIN2 (11723855_a_at) / RFU LOC730098 (11760151_x_at) / Fold change /veh LOC730098 (11760151_x_at) / RFU OR4N2 (11742367_at) / Fold change /veh OR4N2 (11742367_at) / RFU PRRT2 (11749266_a_at) / Fold change /veh PRRT2 (11749266_a_at) / RFU SNX32 (11753110_a_at) / Fold change /veh SNX32 (11753110_a_at) / RFU CDHR5 (11726645_a_at) / Fold change /veh CDHR5 (11726645_a_at) / RFU RCAN1 (11760418_a_at) / Fold change /veh RCAN1 (11760418_a_at) / RFU FAM167A (11723789_a_at) / Fold change /veh FAM167A (11723789_a_at) / RFU FAM26E (11764081_at) / Fold change /veh FAM26E (11764081_at) / RFU ISYNA1 (11749810_s_at) / Fold change /veh ISYNA1 (11749810_s_at) / RFU ACY1 (11761880_at) / Fold change /veh ACY1 (11761880_at) / RFU 11764098_at / Fold change /veh 11764098_at / RFU SAMD14 (11745864_x_at) / Fold change /veh SAMD14 (11745864_x_at) / RFU NPB (11741838_a_at) / Fold change /veh NPB (11741838_a_at) / RFU TMPRSS6 (11731388_a_at) / Fold change /veh TMPRSS6 (11731388_a_at) / RFU KRTAP10-2 (11738614_at) / Fold change /veh KRTAP10-2 (11738614_at) / RFU ARHGAP8 /// PRR5-ARHGAP8 (11727945_x_at) / Fold change /veh ARHGAP8 /// PRR5-ARHGAP8 (11727945_x_at) / RFU KRTAP5-7 /// NADSYN1 (11734609_at) / Fold change /veh KRTAP5-7 /// NADSYN1 (11734609_at) / RFU RASL12 (11751679_a_at) / Fold change /veh RASL12 (11751679_a_at) / RFU CDKN2B (11736163_a_at) / Fold change /veh CDKN2B (11736163_a_at) / RFU PRF1 (11729649_at) / Fold change /veh PRF1 (11729649_at) / RFU, ZNF638 /// ZNF638-IT1 / Fold change vs veh, ZNF638 /// ZNF638-IT1 / RFU, PANK3 / Fold change vs veh, PANK3 / RFU, SH3YL1 / Fold change vs veh, SH3YL1 / RFU, ZEB2 / Fold change vs veh, ZEB2 / RFU, NRIP1 / Fold change vs veh, NRIP1 / RFU, PTTG1IP / Fold change vs veh, PTTG1IP / RFU, CAPN2 / Fold change vs veh, CAPN2 / RFU, MED14 / Fold change vs veh, MED14 / RFU, SNORA58 / Fold change vs veh, SNORA58 / RFU, C1orf63 / Fold change vs veh, C1orf63 / RFU, LRRFIP1 / Fold change vs veh, LRRFIP1 / RFU, NDUFAF7 / Fold change vs veh, NDUFAF7 / RFU, SLC12A2 / Fold change vs veh, SLC12A2 / RFU, IBTK / Fold change vs veh, IBTK / RFU, ESF1 / Fold change vs veh, ESF1 / Fold change vs veh, TMEM50B / RFU, TAOK1 / Fold change vs veh, TAOK1 / RFU, ACBD3 / Fold change vs veh, ACBD3 / RFU, TMA16 / Fold change vs veh, TMA16 / RFU, RWDD3 / Fold change vs veh, RWDD3 / RFU, BCAT1 / Fold change vs veh, BCAT1 / RFU, EDEM3 / Fold change vs veh, EDEM3 / RFU, TMEM33 / Fold change vs veh, TMEM33 / RFU, WDR75 / Fold change vs veh, WDR75 / RFU, AHCTF1 / Fold change vs veh, AHCTF1 / RFU, TFRC / Fold change vs veh, TFRC / RFU, ZDHHC17 / Fold change vs veh, ZDHHC17 / RFU, NOM1 / Fold change vs veh, NOM1 / RFU, ARL8B / Fold change vs veh, ARL8B / RFU, ZBTB11 / Fold change vs veh, ZBTB11 / RFU, TAMM41 / Fold change vs veh, TAMM41 / RFU, KIAA1704 /// LOC100996395 / Fold change vs veh, KIAA1704 /// LOC100996395 / RFU, ING1 / Fold change vs veh, ING1 / RFU, TRMT61B / Fold change vs veh, TRMT61B / RFU, FUBP3 / Fold change vs veh, FUBP3 / RFU, TP53 / Fold change vs veh, TP53 / RFU, TNKS2 / Fold change vs veh, TNKS2 / RFU, ZFP14 / Fold change vs veh, ZFP14 / RFU, ACTR2 / Fold change vs veh, ACTR2 / RFU, PPP3R1 / Fold change vs veh, PPP3R1 / RFU, PIK3R1 / Fold change vs veh, PIK3R1 / RFU, HNRNPA1 / Fold change vs veh, HNRNPA1 / RFU, RNF170 / Fold change vs veh, RNF170 / RFU, ZNF28 / Fold change vs veh, ZNF28 / RFU, RNGTT / Fold change vs veh, RNGTT / RFU, OGT / Fold change vs veh, OGT / RFU, BRD1 / Fold change vs veh, BRD1 / RFU, MARS / Fold change vs veh, MARS / RFU, ZNF655 / Fold change vs veh, ZNF655 / RFU, FAHD1 / Fold change vs veh, FAHD1 / RFU, BDP1 / Fold change vs veh, BDP1 / RFU, LRRCC1 / Fold change vs veh, LRRCC1 / RFU, ARID1A / Fold change vs veh, ARID1A / RFU, ZNF146 / Fold change vs veh, ZNF146 / RFU, ZNF330 / Fold change vs veh, ZNF330 / RFU, GPN3 / Fold change vs veh, GPN3 / RFU, C9orf123 / Fold change vs veh, C9orf123 / RFU, N4BP2L2 / Fold change vs veh, N4BP2L2 / RFU, ARFIP1 / Fold change vs veh, ARFIP1 / RFU, FAM179B / Fold change vs veh, FAM179B / RFU, BCL10 / Fold change vs veh, BCL10 / RFU, UHRF1BP1L / Fold change vs veh, UHRF1BP1L / RFU, BET1 / Fold change vs veh, BET1 / RFU, CNOT2 / Fold change vs veh, CNOT2 / RFU, ZNF268 / Fold change vs veh, ZNF268 / Fold change vs veh, ZNF507 / RFU, DGCR2 / Fold change vs veh, DGCR2 / RFU, WDSUB1 / Fold change vs veh, WDSUB1 / Fold change vs veh, HSP90B1 /// MIR3652 / RFU, ADSS / Fold change vs veh, ADSS / RFU, GK / Fold change vs veh, GK / RFU, ZNF148 / Fold change vs veh, ZNF148 / RFU, TAF9 / Fold change vs veh, TAF9 / RFU, SLC1A5 / Fold change vs veh, SLC1A5 / RFU, SLMO2 / Fold change vs veh, SLMO2 / RFU, ABCC4 / Fold change vs veh, ABCC4 / RFU, LOC101060439 /// RAP1B / Fold change vs veh, LOC101060439 /// RAP1B / RFU, RFX7 / Fold change vs veh, RFX7 / RFU, GTPBP10 / Fold change vs veh, GTPBP10 / RFU, CNEP1R1 / Fold change vs veh, CNEP1R1 / RFU, BIVM-ERCC5 /// ERCC5 / Fold change vs veh, BIVM-ERCC5 /// ERCC5 / RFU, ILF3 / Fold change vs veh, ILF3 / RFU 11762660_at / Fold change /veh 11762660_at / RFU VCAN (11757783_s_at) / Fold change /veh VCAN (11757783_s_at) / RFU DDX43 (11728927_at) / Fold change /veh DDX43 (11728927_at) / RFU KRT8 (11758188_x_at) / Fold change /veh KRT8 (11758188_x_at) / RFU NKD1 (11759106_at) / Fold change /veh NKD1 (11759106_at) / RFU SRD5A1 (11742802_a_at) / Fold change /veh SRD5A1 (11742802_a_at) / RFU TPSAB1 /// TPSB2 (11721975_s_at) / Fold change /veh TPSAB1 /// TPSB2 (11721975_s_at) / RFU GSTM3 (11746129_a_at) / Fold change /veh GSTM3 (11746129_a_at) / RFU IL23R (11737362_x_at) / Fold change /veh IL23R (11737362_x_at) / RFU TMEM51 (11727254_a_at) / Fold change /veh TMEM51 (11727254_a_at) / RFU PIWIL2 (11732686_x_at) / Fold change /veh PIWIL2 (11732686_x_at) / RFU ORM1 (11744905_x_at) / Fold change /veh ORM1 (11744905_x_at) / RFU CCDC152 (11743942_at) / Fold change /veh CCDC152 (11743942_at) / RFU ECM1 (11717891_a_at) / Fold change /veh ECM1 (11717891_a_at) / RFU IL23R (11748794_a_at) / Fold change /veh IL23R (11748794_a_at) / RFU TNFAIP8L3 (11732012_x_at) / Fold change /veh TNFAIP8L3 (11732012_x_at) / RFU MBOAT4 (11741988_at) / Fold change /veh MBOAT4 (11741988_at) / RFU 11764193_at / Fold change /veh 11764193_at / RFU TMEM53 (11763286_at) / Fold change /veh TMEM53 (11763286_at) / RFU MAGEB2 (11727129_at) / Fold change /veh MAGEB2 (11727129_at) / RFU TMEM200A (11744735_a_at) / Fold change /veh TMEM200A (11744735_a_at) / RFU CCDC152 (11751479_a_at) / Fold change /veh CCDC152 (11751479_a_at) / RFU FAM211A (11726209_a_at) / Fold change /veh FAM211A (11726209_a_at) / RFU RGS16 (11746705_a_at) / Fold change /veh RGS16 (11746705_a_at) / RFU VCAN (11755009_s_at) / Fold change /veh VCAN (11755009_s_at) / RFU RHOB (11743442_s_at) / Fold change /veh RHOB (11743442_s_at) / RFU RGS16 (11720943_a_at) / Fold change /veh RGS16 (11720943_a_at) / RFU RGS16 (11720944_at) / Fold change /veh RGS16 (11720944_at) / RFU, VPS4B / Fold change vs veh, VPS4B / RFU, CREB1 / Fold change vs veh, CREB1 / RFU, DNAJC13 / Fold change vs veh, DNAJC13 / RFU, GNAQ / Fold change vs veh, GNAQ / RFU, CDK5R1 / Fold change vs veh, CDK5R1 / RFU, ZRANB3 / Fold change vs veh, ZRANB3 / RFU, CUL4A / Fold change vs veh, CUL4A / RFU, CCNY / Fold change vs veh, CCNY / RFU, UFL1 / Fold change vs veh, UFL1 / RFU, COG3 / Fold change vs veh, COG3 / RFU, DIAPH2 / Fold change vs veh, DIAPH2 / RFU, SKA2 / Fold change vs veh, SKA2 / RFU, AFF3 / Fold change vs veh, AFF3 / RFU, LMF1 / Fold change vs veh, LMF1 / RFU, IPO11 / Fold change vs veh, IPO11 / RFU, DFFB / Fold change vs veh, DFFB / RFU, FOXP1 / Fold change vs veh, FOXP1 / RFU, CARD8 / Fold change vs veh, CARD8 / RFU, STRN3 / Fold change vs veh, STRN3 / RFU, ADK / Fold change vs veh, ADK / RFU, RASSF2 / Fold change vs veh, RASSF2 / RFU, WIPF1 / Fold change vs veh, WIPF1 / RFU, LARP1B / Fold change vs veh, LARP1B / RFU, RASA1 / Fold change vs veh, RASA1 / RFU, RB1 / Fold change vs veh, RB1 / RFU, PPFIA1 / Fold change vs veh, PPFIA1 / RFU, MAT2A / Fold change vs veh, MAT2A / RFU, CCT5 / Fold change vs veh, CCT5 / RFU, WDR92 / Fold change vs veh, WDR92 / RFU, CUX1 / Fold change vs veh, CUX1 / RFU, TTC7A / Fold change vs veh, TTC7A / RFU, TMEM135 / Fold change vs veh, TMEM135 / RFU, DEPTOR / Fold change vs veh, DEPTOR / RFU, CPM / Fold change vs veh, CPM / RFU, DNAJB6 / Fold change vs veh, DNAJB6 / RFU, CACNA2D3 / Fold change vs veh, CACNA2D3 / RFU, DTX4 / Fold change vs veh, DTX4 / RFU, TFCP2 / Fold change vs veh, TFCP2 / RFU, GMCL1 /// GMCL1P1 / Fold change vs veh, GMCL1 /// GMCL1P1 / RFU, AEBP2 / Fold change vs veh, AEBP2 / RFU, SNHG1 /// SNORD22 /// SNORD25 /// SNORD26 /// SNORD27 /// SNORD28 /// SNORD29 /// SNORD31 / Fold change vs veh, SNHG1 /// SNORD22 /// SNORD25 /// SNORD26 /// SNORD27 /// SNORD28 /// SNORD29 /// SNORD31 / Fold change (Aza/veh), C12orf56 (ProbeSet 11735607_a_at) / Fold change (ACY-1035/veh), C12orf56 (ProbeSet 11735607_a_at) / Fold change (Aza/veh), FGFR1OP (ProbeSet 11751329_s_at) / Fold change (ACY-1035/veh), FGFR1OP (ProbeSet 11751329_s_at) / Fold change (Aza/veh), VPS36 (ProbeSet 11739960_a_at) / Fold change (ACY-1035/veh), VPS36 (ProbeSet 11739960_a_at) / RFU SYPL1 (11715823_x_at) / Fold change /veh SYPL1 (11715823_x_at) / RFU IGFBP7 (11715501_s_at) / Fold change /veh IGFBP7 (11715501_s_at) / RFU REEP3 (11722064_at) / Fold change /veh REEP3 (11722064_at) / RFU IGLL1 (11728026_x_at) / Fold change /veh IGLL1 (11728026_x_at): dose or concentration left out as unconfirmed
Conditions: MV-4-11 cells, 48 hours

Nc1ccc(-c2cccs2)cc1NC(=O)c1ccc2c(c1)cc(C1CC1)n2CCN1CCOCC1 [ACY-1035]
Fold change /veh NKD1 (11759106_at): 1.08
